# Legend:
# [1] = biological target: GDP-bound NRAS wild-type protein (Homo sapiens, UniProt P01111); test: Binding to NRAS by surface plasmon resonance (SPR), Single Cycle Kinetics; settings: SPR, GDP-bound NRAS wild-type vs GDP-bound KRAS wild-type
# [2] = biological target: GDP-bound HRAS wild-type protein (Homo sapiens, UniProt P01112); test: Binding to HRAS by surface plasmon resonance (SPR), Single Cycle Kinetics; settings: SPR, GDP-bound HRAS wild-type vs GDP-bound KRAS wild-type
# Chain of GDP-bound HRAS wild-type protein (P01112 whole entry): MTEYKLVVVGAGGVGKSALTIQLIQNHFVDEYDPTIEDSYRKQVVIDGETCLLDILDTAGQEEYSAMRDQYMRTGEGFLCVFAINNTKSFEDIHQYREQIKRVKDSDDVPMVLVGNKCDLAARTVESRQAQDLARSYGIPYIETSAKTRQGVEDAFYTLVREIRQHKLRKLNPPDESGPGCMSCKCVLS
# Chain of GDP-bound NRAS wild-type protein (P01111 whole entry): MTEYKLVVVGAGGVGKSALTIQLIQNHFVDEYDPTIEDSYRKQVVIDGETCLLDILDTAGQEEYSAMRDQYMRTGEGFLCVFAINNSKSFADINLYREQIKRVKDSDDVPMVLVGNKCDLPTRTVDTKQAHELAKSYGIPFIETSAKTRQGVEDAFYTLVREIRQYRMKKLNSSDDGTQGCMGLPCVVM
Structure (SMILES),NRAS/KRAS (ratio of KD value with respect to NRAS to KD value with respect to KRAS) [1],HRAS/KRAS (ratio of KD value with respect to HRAS to KD value with respect to KRAS) [2]
CCO[C@@H]1C[C@H]2C(=O)NC3(CC(C)(C)C3)C(=O)N(C)[C@@H](C(CC)CC)C(=O)N(C)[C@H](C(=O)N3CCCC3)CC(=O)N(C)[C@@H](COC)C(=O)N[C@@H]([C@@H](C)CC)C(=O)N(C)CC(=O)N(C)[C@H]3C/C=C\CCN(C3=O)[C@@H](Cc3ccc(C)cc3)C(=O)N(C)CC(=O)N[C@@H](CCc3cc(F)c(C(F)(F)F)c(F)c3)C(=O)N2C1 [PP2139],AA (a compound having 20 or more is denoted as AA),A (a compound having 10 or more and less than 20 is denoted as A)
CCO[C@@H]1C[C@H]2C(=O)NC3(CC(C)(C)C3)C(=O)N(C)[C@@H](C(CC)CC)C(=O)N(C)[C@H](C(=O)N(C)C)CC(=O)N(C)[C@@H](C(C)C)C(=O)N[C@@H]([C@@H](C)CC)C(=O)N(C)CC(=O)N(C)[C@H]3C/C=C\CCN(C3=O)[C@@H](Cc3ccc(C(F)(F)F)cc3)C(=O)N(C)CC(=O)N[C@@H](CCc3ccc(C(F)(F)F)c(Cl)c3)C(=O)N2C1 [PP2140],AA (a compound having 20 or more is denoted as AA),A (a compound having 10 or more and less than 20 is denoted as A)
CCO[C@@H]1C[C@H]2C(=O)NC3(CC(C)(C)C3)C(=O)N(C)[C@@H](C(CC)CC)C(=O)N(C)[C@H](C(=O)N(C)C)CC(=O)N(C)[C@@H](CC(C)C)C(=O)N[C@@H]([C@@H](C)CC)C(=O)N(C)CC(=O)N(C)[C@H]3C/C=C\CCN(C3=O)[C@@H](Cc3ccc(C)cc3)C(=O)N(C)CC(=O)N[C@@H](CCc3cc(F)c(C(F)(F)F)c(F)c3)C(=O)N2C1 [PP2141],A (a compound having 10 or more and less than 20 is denoted as A),A (a compound having 10 or more and less than 20 is denoted as A)
CCO[C@@H]1C[C@H]2C(=O)NC3(CC(C)(C)C3)C(=O)N(C)[C@@H](C(CC)CC)C(=O)N(C)[C@H](C(=O)N(C)C)CC(=O)N(C)[C@@H](CC3CC3)C(=O)N[C@@H]([C@@H](C)CC)C(=O)N(C)CC(=O)N(C)[C@H]3C/C=C\CCN(C3=O)[C@@H](Cc3ccc(C)cc3)C(=O)N(C)CC(=O)N[C@@H](CCc3ccc(C(F)(F)F)c(Cl)c3)C(=O)N2C1 [PP2142],AA (a compound having 20 or more is denoted as AA),A (a compound having 10 or more and less than 20 is denoted as A)
CCO[C@@H]1C[C@H]2C(=O)NC3(CC(C)(C)C3)C(=O)N(C)[C@@H](C(CC)CC)C(=O)N(C)[C@H](C(=O)N(C)C)CC(=O)N(C)[C@@H](C)C(=O)N[C@@H]([C@@H](C)CC)C(=O)N(C)CC(=O)N(C)[C@H]3C/C=C\CCN(C3=O)[C@@H](Cc3ccc(C)cc3)C(=O)N(C)CC(=O)N[C@@H](CCc3cc(F)c(C(F)(F)F)c(F)c3)C(=O)N2C1 [PP2143],A (a compound having 10 or more and less than 20 is denoted as A),A (a compound having 10 or more and less than 20 is denoted as A)
CCO[C@@H]1C[C@H]2C(=O)NC3(CC(C)(C)C3)C(=O)N(C)[C@@H](C(CC)CC)C(=O)N(C)[C@H](C(=O)N3CCCC3)CC(=O)N(C)[C@@H](COC)C(=O)N[C@@H]([C@@H](C)CC)C(=O)N(C)CC(=O)N(C)[C@H]3C/C=C\CCN(C3=O)[C@@H](Cc3ccc(C)cc3)C(=O)N(C)CC(=O)N[C@@H](CCc3ccc(C(F)(F)F)c(Cl)c3)C(=O)N2C1 [PP2144],AA (a compound having 20 or more is denoted as AA),A (a compound having 10 or more and less than 20 is denoted as A)
CCO[C@@H]1C[C@H]2C(=O)NC3(CC(C)(C)C3)C(=O)N(C)[C@@H](C(CC)CC)C(=O)N(C)[C@H](C(=O)N3CCCC3)CC(=O)N(C)[C@@H](C)C(=O)N[C@@H]([C@@H](C)CC)C(=O)N(C)CC(=O)N(C)[C@H]3C/C=C\CCN(C3=O)[C@@H](Cc3ccc(C)cc3)C(=O)N(C)CC(=O)N[C@@H](CCc3cc(F)c(C(F)(F)F)c(F)c3)C(=O)N2C1 [PP2145],A (a compound having 10 or more and less than 20 is denoted as A),A (a compound having 10 or more and less than 20 is denoted as A)
CCC[C@H]1C(=O)N[C@@H]([C@@H](C)CC)C(=O)N(C)CC(=O)N(C)[C@H]2C/C=C\CCN(C2=O)[C@@H](Cc2ccc(C)cc2)C(=O)N(C)CC(=O)N[C@@H](CCc2ccc(C(F)(F)F)c(Cl)c2)C(=O)N2C[C@H](OCC)C[C@H]2C(=O)NC2(CC(C)(C)C2)C(=O)N(C)[C@@H](C(CC)CC)C(=O)N(C)[C@H](C(=O)N(C)C)CC(=O)N1C [PP2146],A (a compound having 10 or more and less than 20 is denoted as A),A (a compound having 10 or more and less than 20 is denoted as A)
CCO[C@@H]1C[C@H]2C(=O)NC3(CC(C)(C)C3)C(=O)N(C)[C@@H](C(CC)CC)C(=O)N(C)[C@H](C(=O)N(C)C)CC(=O)N(C)[C@@H](CC)C(=O)N[C@@H]([C@@H](C)CC)C(=O)N(C)CC(=O)N(C)[C@H]3C/C=C\CCN(C3=O)[C@@H](Cc3ccc(C)cc3)C(=O)N(C)CC(=O)N[C@@H](CCc3cc(F)c(C(F)(F)F)c(F)c3)C(=O)N2C1 [PP2147],A (a compound having 10 or more and less than 20 is denoted as A),B (a compound having 3 or more and less than 10 is denoted as B)
CCO[C@@H]1C[C@H]2C(=O)NC3(CC(C)(C)C3)C(=O)N(C)[C@@H](C(CC)CC)C(=O)N(C)[C@H](C(=O)N(C)C)CC(=O)N(C)[C@@H](CC(C)C)C(=O)N[C@@H]([C@@H](C)CC)C(=O)N(C)CC(=O)N(C)[C@H]3C/C=C\CCN(C3=O)[C@@H](Cc3ccc(C)cc3)C(=O)N(C)CC(=O)N[C@@H](CCc3ccc(C(F)(F)F)c(Cl)c3)C(=O)N2C1 [PP2148],A (a compound having 10 or more and less than 20 is denoted as A),A (a compound having 10 or more and less than 20 is denoted as A)
CCO[C@@H]1C[C@H]2C(=O)NC3(CC(C)(C)C3)C(=O)N(C)[C@@H](C(CC)CC)C(=O)N(C)[C@H](C(=O)N3CCCC3)CC(=O)N(C)[C@@H](CC)C(=O)N[C@@H]([C@@H](C)CC)C(=O)N(C)CC(=O)N(C)[C@H]3C/C=C\CCN(C3=O)[C@@H](Cc3ccc(C)cc3)C(=O)N(C)CC(=O)N[C@@H](CCc3cc(F)c(C(F)(F)F)c(F)c3)C(=O)N2C1 [PP2149],A (a compound having 10 or more and less than 20 is denoted as A),A (a compound having 10 or more and less than 20 is denoted as A)
CCO[C@@H]1C[C@H]2C(=O)NC3(CC(C)(C)C3)C(=O)N(C)[C@@H](C(CC)CC)C(=O)N(C)[C@H](C(=O)N(C)C)CC(=O)N(C)[C@@H](C)C(=O)N[C@@H]([C@@H](C)CC)C(=O)N(C)CC(=O)N(C)[C@H]3C/C=C\CCN(C3=O)[C@@H](Cc3ccc(C)cc3)C(=O)N(C)CC(=O)N[C@@H](CCc3ccc(C(F)(F)F)c(Cl)c3)C(=O)N2C1 [PP2150],AA (a compound having 20 or more is denoted as AA),A (a compound having 10 or more and less than 20 is denoted as A)
CCO[C@@H]1C[C@H]2C(=O)NC3(CC(C)(C)C3)C(=O)N(C)[C@@H](C(CC)CC)C(=O)N(C)[C@H](C(=O)N(C)C)CC(=O)N(C)[C@@H](CC3CCC3)C(=O)N[C@@H]([C@@H](C)CC)C(=O)N(C)CC(=O)N(C)[C@H]3C/C=C\CCN(C3=O)[C@@H](Cc3ccc(C)cc3)C(=O)N(C)CC(=O)N[C@@H](CCc3cc(F)c(C(F)(F)F)c(F)c3)C(=O)N2C1 [PP2151],A (a compound having 10 or more and less than 20 is denoted as A),A (a compound having 10 or more and less than 20 is denoted as A)
CCO[C@@H]1C[C@H]2C(=O)NC3(CC(C)(C)C3)C(=O)N(C)[C@@H](C(CC)CC)C(=O)N(C)[C@H](C(=O)N3CCCC3)CC(=O)N(C)[C@@H](C)C(=O)N[C@@H]([C@@H](C)CC)C(=O)N(C)CC(=O)N(C)[C@H]3C/C=C\CCN(C3=O)[C@@H](Cc3ccc(C)cc3)C(=O)N(C)CC(=O)N[C@@H](CCc3ccc(C(F)(F)F)c(Cl)c3)C(=O)N2C1 [PP2152],AA (a compound having 20 or more is denoted as AA),A (a compound having 10 or more and less than 20 is denoted as A)
CCO[C@@H]1C[C@H]2C(=O)NC3(CC(C)(C)C3)C(=O)N(C)[C@@H](C(CC)CC)C(=O)N(C)[C@H](C(=O)N(C)C)CC(=O)N(C)[C@@H](C(C)C)C(=O)N[C@@H]([C@@H](C)CC)C(=O)N(C)CC(=O)N(C)[C@H]3C/C=C\CCN(C3=O)[C@@H](Cc3ccc(C)cc3)C(=O)N(C)CC(=O)N[C@@H](CCc3cc(F)c(C(F)(F)F)c(F)c3)C(=O)N2C1 [PP2153],A (a compound having 10 or more and less than 20 is denoted as A),A (a compound having 10 or more and less than 20 is denoted as A)
CCO[C@@H]1C[C@H]2C(=O)NC3(CC(C)(C)C3)C(=O)N(C)[C@@H](C(CC)CC)C(=O)N(C)[C@H](C(=O)N(C)C)CC(=O)N(C)[C@@H](CC)C(=O)N[C@@H]([C@@H](C)CC)C(=O)N(C)CC(=O)N(C)[C@H]3C/C=C\CCN(C3=O)[C@@H](Cc3ccc(C)cc3)C(=O)N(C)CC(=O)N[C@@H](CCc3ccc(C(F)(F)F)c(Cl)c3)C(=O)N2C1 [PP2154],A (a compound having 10 or more and less than 20 is denoted as A),A (a compound having 10 or more and less than 20 is denoted as A)

# — US20250230193A1, “CYCLIC COMPOUND HAVING SELECTIVE KRAS INHIBITORY EFFECT ON HRAS AND NRAS” (CHUGAI SEIYAKU KABUSHIKI KAISHA, priority 2022, published 2025)
